What all share (format): cell-based, human
Assay [1] concerns PSG expression in coronary arterial smooth muscle cells. The assay can be described thus: Microarray analysis of PSG gene expression in coronary artery smooth muscle cells after atherogenic stimuli. Conditions: for PSG 2 expression / PSG6 expression / PSG1 expression response: SMCs from coronary artery; for PSG expression: coronary arterial smooth muscle cells, after treatment. An excerpt: (§1) Vein and artery respond differently to atherogenic lesion under different conditions. […] However, venous bypass grafts can develop accelerated atherosclerosis in vein graft disease for patients after bypass surgery. […] This could possibly be explained by the different roles of endothelial and smooth muscle cells in the development of atherosclerosis. Endothelial cells (EC) are critical in the initiation of atherosclerosis, while smooth muscle cells (SMC) are closely related to the evolution of the atheroma. The global gene expression responses to various atherogenic stimulations between human venous and arterial cells have been determined to identify genes that may contribute to different susceptibilities to atherosclerosis.
(§2) When gene expression of untreated saphenous vein endothelial cells (SVEC) and coronary artery endothelial cells (CAEC) were compared by microarray analysis, five isoforms (PSG1, PSG3, PSG6, PSG7 and PSG9) out of 9 isoforms in the arrays were higher (>1.5 fold and P<0.005) in SVEC than CAEC. In untreated saphenous vein smooth muscle cells (SVSM) and coronary artery smooth muscle cells (CASM), all 9 isoforms of PSGs in the arrays are expressed higher in SVSM than CASM (See Table 1). It is unlikely a false positive result from arrays, since the result was obtained from 4 separate primary cultures from two-donors and more than 5 microarray data sets, and multiple PSG isoforms had similar changes. […] In basal state, PSG expression is higher in vein than artery.
Oxidized LDL (OxLDL), a key atherogenic factor, pro-inflammatory cytokines TNFα and IL1β, as well as cytokines regulating cell proliferation, differentiation and migration like PDGF and TGFβ all up-regulate PSG expression in coronary arterial smooth muscle cells.

Assay [2] deals with PSG expression in SMCs from saphenous vein. The experiment in a line: Microarray analysis of PSG gene expression in saphenous vein smooth muscle cells after atherogenic stimuli.
Description: as §1, §2
The gene expression of PSG isoforms is quite different between the two SMCs. In SMCs from saphenous vein, TGFβ and TNFα down-regulate the expression of PSG1. TGFβ also down-regulates PSG9.

Assay [3] concerns PSG expression in endothelial cells from artery. The experiment in a line: Microarray analysis of PSG gene expression in coronary artery endothelial cells after atherogenic stimuli. The conditions noted are these: after treatment.
Assay [4] relates to PSG expression in endothelial cells from vein. The experiment in a line: Microarray analysis of PSG gene expression in saphenous vein endothelial cells after atherogenic stimuli. The conditions noted are these: after treatment.
Description: as §1
When gene expression of untreated saphenous vein endothelial cells (SVEC) and coronary artery endothelial cells (CAEC) were compared by microarray analysis, five isoforms (PSG1, PSG3, PSG6, PSG7 and PSG9) out of 9 isoforms in the arrays were higher (>1.5 fold and P<0.005) in SVEC than CAEC. In untreated saphenous vein smooth muscle cells (SVSM) and coronary artery smooth muscle cells (CASM), all 9 isoforms of PSGs in the arrays are expressed higher in SVSM than CASM (See Table 1). […]

For PDGF, in assay [1], the “PSG 2 expression” value is recorded as “up-regulated”, the PSG6 expression result was “up-regulated” and the PSG expression entry is “up-regulate”.

Regarding TGFβ, in assay [1], the PSG1 expression response result is listed as “opposite responses”, the “PSG 2 expression” value is listed as “up-regulated”, the PSG6 expression entry is “up-regulated” and the PSG expression result was “up-regulate”. In assay [2], the PSG1 expression entry was “down-regulate” and the PSG9 expression entry is “down-regulates”.

TNFα: the PSG expression result in assay [3] is given as “No significant change”; in assay [4], “No significant change”; in assay [1] it was “up-regulate”. Besides, the “PSG 2 expression” value in assay [1] is “up-regulated”. The PSG6 expression result in assay [1] is “up-regulated”. In addition, the PSG1 expression entry in assay [2] is listed as “down-regulate”.

Consider IL1β: pro-inflammatory cytokine, for which the PSG expression entry in assay [3] is “No significant change”. Further, the PSG expression result in assay [4] is recorded as “No significant change”. Further, in assay [1], the PSG1 expression response result is “opposite responses”, the “PSG 2 expression” value is reported as “up-regulated”, the PSG6 expression result was “up-regulated” and the PSG expression result was “up-regulate”.

The values above are taken from patent US20060063162A1, “Biological marker for inflammation” (priority 2004, published 2006).
